From ChEMBL document CHEMBL3507680, “University of Dundee, Gates Library screen for HepG2 cell viability”

Test: Human HepG2 cell viability assay in 384 well format
Format: toxicity, cell-based
Parameters: dose 125 nL, time 70.5 hour; cytotoxicity at 70.5 h: concentration not given beside the values
Conditions: HepG2 cells, read-out: Inhibition

| SMILES | cytotoxicity at 70.5 h [%] |
| --- | --- |
| CCc1nc(NC(=O)N(C)Cc2ccoc2)nn1C | -1.12 |
| CN1C(=O)[C@H]2CC[C@@H]1CN(C(=O)c1nnc3n1CCCCC3)C2 | -6.73 |
| CCNC(=O)CN1CCCC(c2ccc(C(=O)O)cc2)C1 (centres undefined) | 31.1 |
| CC(NS(C)(=O)=O)C(=O)N(C)Cc1csc(-c2ccccc2)n1 (centres undefined) | -13.9 |
| CC1CCCCN1C(=O)c1coc(COc2cccc3cnccc23)n1 (centres undefined) | -6.78 |
| Cc1ccccc1CSc1nc(N)cc(N2CCC(CC(N)=O)CC2)n1 | -3.38 |
| CC(=O)Nc1ccc(Cl)c(C(=O)N(C)C(C)c2ccon2)c1 (centres undefined) | 5 |
| CCC(CO)N(Cc1cccs1)C(=O)Cc1ccc(O)cc1 (centres undefined) | 16.3 |
| CN1[C@@H](c2ccccc2)[C@@H](C(=O)NCc2ccccn2)C[C@@]1(C)C(=O)O | 23 |
| Cc1ccc(-c2cn[nH]c2C2CCCN(c3cc(N)ncn3)C2)cc1 (centres undefined) | 5.4 |
| CS(=O)(=O)N1C[C@@H]2CC[C@H](C1)N(C(=O)CCc1ccsc1)C2 | -2.59 |
| Cc1nc(C)c(CC(=O)N2CCCN(CC3CC3)C(C(C)C)C2)c(=O)[nH]1 (centres undefined) | 0.531 |
| CCNc1ncc(C(=O)N2CCOC(CCCC(C)C)C2)cn1 (centres undefined) | -7.7 |
| CC(C)N(Cc1ccc(C(F)(F)F)nc1)Cc1cnn(C)c1 | -6.85 |
| Cc1cnccc1N1CCCN(C(=O)CCn2ccnc2C)CC1 | -3.98 |
| CN(CCc1cn[nH]c1)C(=O)C(c1ccc(F)cc1)N(C)C (centres undefined) | -9.33 |
| Cc1nc2c(c(=O)[nH]1)CN(C(=O)CCC1CCCN(C)C1)C2 (centres undefined) | -4.89 |
| Cn1c(-c2ccccc2Cl)nc2cc(C(=O)NC(CO)CO)cnc21 | -8.01 |
| OCCOCCNCC1(c2ccc(F)cc2)CCOC1 (centres undefined) | -0.024 |
| CC(C)NC(=O)[C@@H]1C[C@@H](N)CN1C(=O)CCSCc1ccc(F)cc1 | -3.93 |
| CC(COc1ccccc1)NCc1nncn1C1CCCCC1 (centres undefined) | 7.54 |
| O=C(O)[C@@H]1CN(CC(=O)N2CCCCC2)C[C@H]1c1ccc(F)cc1 | -2.52 |
| Fc1cccc(-n2nc(C3CC3)nc2CCn2cnnn2)c1 | -3.9 |
| Cc1ccc(CN(C)Cc2cnc(N3CCOCC3)s2)o1 | 22.4 |
| CN(Cc1cnccn1)C(=O)[C@@]12CNC[C@@H]1CN(Cc1ccccc1)C2 | -11.2 |
| O=C(Nc1cnc2n1CCCC2)C1CCNCC1 | 26.5 |
| CCc1cnc(C)nc1NC1CC(=O)N(CC2CCCCC2)C1 (centres undefined) | -8.14 |

| SMILES | cytotoxicity at 70.5 h [%] |
| --- | --- |
| O=C1NCCN(C(=O)c2cn3ccsc3n2)C1Cc1ccccc1 (centres undefined) | -5.01 |
| O=C([C@@H]1CCCO1)N1CCC(Cn2cc(-c3ccsc3)nn2)CC1 | -7.52 |
| O=C(O)C1(Oc2ccc3ccccc3c2)CCN(c2ncccn2)CC1 | -0.873 |
| O=C(c1ccc(C(F)(F)F)cc1)N1C[C@@H](CN2CCCCC2)[C@@H](CO)C1 | 3.19 |
| COc1nc2c(cc1C(=O)N(C)Cc1n[nH]c3c1CCCC3)CCC2 | -6.28 |
| Cc1ccccc1N1CCN(C(=O)c2cnn(C(C)C)c2)C(C)C1 (centres undefined) | -4.79 |
| CCn1c(Cn2cncn2)nnc1C1CCN(C2CCNCC2)CC1 | -5.11 |
| CCc1cc(N2CCN(C(C)=O)CC2)n2nc(C)c(C)c2n1 | 10.6 |
| O=c1cc(CN2CC[C@@]3(O)CCCC[C@H]3C2)c2cccc3c2n1CCC3 | -11.8 |
| CCOc1ccc(CN2CC[C@@](C)(O)[C@@H](Cc3ccccc3)C2)cn1 | -1.83 |
| CCCOCC1CCN(C(=O)Cn2ncc(N3CCCC3)cc2=O)C1 (centres undefined) | 26.8 |
| CN1CC2(CCN(C(=O)c3cccc(-n4cccn4)c3)CC2)OC1=O | 21.3 |
| CCn1cc(CN2CCCN(C3Cc4ccccc4C3)CC2)cn1 | -7.57 |
| O=C(c1cc(-c2ccco2)nc2c(Cl)cccc12)N1CC[C@H]2CNC[C@H]21 | 19.8 |
| Cc1ncc2c(c1CNC(=O)C1(C)CCCCO1)CCNC2 (centres undefined) | 0.49 |
| COc1nccnc1N1CCN(Cc2cccc(F)c2)C(=O)C1 | 16.1 |
| COc1ccc(NC(=O)N2CCCC(CO)C2)c(C)c1 (centres undefined) | -6.09 |
| CC(C)=CCn1ncc(N2CCOCC2)cc1=O | -1.75 |
| CCc1c(C(=O)N2CCC3(CCCN(CCO)C3=O)C2)csc1C (centres undefined) | 6.16 |
| CCN(Cc1nc(C)no1)C(=O)C1CC(=O)N(Cc2ccccn2)C1 (centres undefined) | -13.9 |
| CC(C)Cc1noc(CN(C)c2cc(C(C)C)nc3ccnn23)n1 | 5.41 |
| Cc1cc(NCCS(C)(=O)=O)n2nc(C)cc2n1 | 4.45 |
| O=C1O[C@@H]2CN(Cc3cccc(O)c3)C[C@@H]2N1CCCN1CCOCC1 | -4.83 |
| CSCC(C)NCc1ccc2[nH]c(C)c(C)c2c1 (centres undefined) | 1.07 |
| NCCn1cc(C(=O)N2CCCCCC2c2ccco2)nn1 (centres undefined) | -8.2 |
| Cc1ccc(-c2cc(C(=O)NCCCc3csc(N)n3)[nH]n2)o1 | 1.47 |
| CCCc1cnc(C)nc1N1CCC(Cc2cccc(C(N)=O)c2)C1 (centres undefined) | -2.67 |

| SMILES | cytotoxicity at 70.5 h [%] |
| --- | --- |
| CS(=O)(=O)N1CCc2[nH]cnc2C12CCN(C1CCOCC1)CC2 | -6.93 |
| O=C1[C@H]2CC[C@H](CN(C3CCOCC3)C2)N1Cc1cscn1 | 23.4 |
| CC(C)[C@@H]1CN(S(=O)(=O)Cc2ccccc2)C[C@H]1NS(=O)(=O)N(C)C | -2.27 |
| FC(F)(F)c1ccc(-c2n[nH]c3c2CN(CC2CCOC2)CC3)cc1 (centres undefined) | -15.3 |
| C[C@@H]1CN(c2ccc(Cl)cn2)C[C@]1(C)O | 3.11 |
| Cn1ccnc1CN(CCO)C(=O)c1nc2ccccc2s1 | 2.62 |
| CN(c1ncccc1CNS(=O)(=O)N1CCOCC1)C1CCCCC1 | 18.5 |
| CCCc1noc(C2CC(=O)N(CCN(C)C)C2)n1 (centres undefined) | -18.6 |
| Cc1nc2c(c(NCCc3nc4c(s3)CCCC4)n1)CCNCC2 | -9.11 |
| CCc1cnc(NCC2OCCc3ccccc32)nc1 (centres undefined) | 3.74 |
| CC(C)c1nnc2sc(CC3CCS(=O)(=O)CC3)nn12 | -8.54 |
| Cc1ccc(CNC(=O)c2cc(CN3CCC(O)CC3)on2)s1 | -18 |
| COc1ccccc1CCN1CCCC(CN(C)Cc2c[nH]c(C)n2)C1 (centres undefined) | 14.9 |
| O=C(NC1CC1)c1cccc(S(=O)(=O)NCCc2nc(C3CC3)no2)c1 | -6.39 |
| CC(C)c1nc(N2CC[C@@H](N(C)CCc3ccccn3)[C@H](O)C2)no1 | 13.3 |
| COc1ccc(Cc2ncc3c(n2)CN(C(=O)CCO)C3)cc1 | 25.1 |
| CCN1CC(C(=O)N2CCc3cc(C(=O)N(C)C)n(C)c3C2)CCC1=O (centres undefined) | -6.7 |
| Cc1cc(NC(C)c2nncn2C2CCCC2)n2nc(C)cc2n1 (centres undefined) | -6.24 |
| Cc1cccc(C2CCCN(C(=O)CN3C(=O)CCNC3=O)C2)c1 (centres undefined) | -13.9 |
| Cc1cc(CN2CCCn3nc(CCC(=O)O)cc3C2)ccc1F | 2.51 |
| NC(=O)c1csc(N2CCN(Cc3cccc4nsnc34)CC2)n1 | 15.7 |
| O=C(Nc1ccc(F)c(F)c1)N1CCC2(CCC(=O)N(C3CC3)C2)CC1 | -5.15 |
| C=C(C)CNc1ccc(C(=O)N(CC)Cc2nccn2C)cn1 | 25.1 |
| Cc1nn(CCO)cc1CN1CCC(N2CCC(O)CC2)CC1 | 1.99 |
| CN(Cc1c[nH]nc1-c1ccc(F)cc1F)Cc1nccn1C | 21.7 |
